Results on four molecules are retold here after US12697331B2, “Methods of use of T-type calcium channel modulators” (PRAXIS PRECISION MEDICINES, INC., priority 2020, dated 2026).

The subject of one series is essential tremor. The note with it: cited from earlier work; for Efficacy for treating essential tremors in clinical trials: adverse effects led to patient discontinuance.
The conditions of series [1]: cited from earlier work.
A short description of series [2]: Phase 1 single and multiple ascending doses of formulation 3: safety and tolerability. Format: in vivo, human. As to conditions: single 60 mg, 6 healthy volunteers, no titration. On the procedure: This was a 2-part, Phase 1 double blind, placebo controlled trial to assess the safety, tolerability, pharmacokinetics, and pharmacodynamics (including the KSS, the KDT, the SQSQ and 24-hour EEG recordings), of single, ascending (Part A: 20, 40, and 60 mg) and multiple, ascending (Part B: 20 and 40 mg for 8 days) doses of the 20 mg tablet (formulation 3) in healthy participants. […] Variability in Cmax and AUC increased with increasing dose following a single oral dose of the 20 mg tablet formulation (formulation 3) (FIG. 16).
Adverse events for the doses of 20 and 40 mg were transient and occurred at a rate similar to placebo. The following TEAEs were observed, all of which were mild to moderate: […]

The nature of series [3]: Within-participant escalating dose trial Part A (5, 10, 20 mg): plasma pharmacokinetics. Type of series: in vivo, human. On the procedure:
(§1) In Part A, an open label trial was conducted.

Series [4] in a line: Within-participant escalating dose trial Part A: safety and tolerability (TEAEs). Type of series: in vivo, human. On the procedure:
as §1

A short description of series [5]: Within-participant escalating dose trial Part B: safety and tolerability (TEAEs). Format: in vivo, human.
The nature of series [6]: Within-participant escalating dose trial Part B (20-120 mg titration): pharmacokinetics. As to conditions: titrated dosing schedule.
Protocol: A trial was conducted to study the safety, tolerability, pharmacokinetics and pharmacodynamics of the compound of formula (I) in healthy participants. Each participant completed 3 study periods: Screening, Treatment period (12 or 31 days), and Safety follow-up.
In Part B, a randomized controlled trial was conducted. […] Patients were allowed to receive the compound of formula (I) daily at each of 60 mg, 80 mg, and 100 mg dose levels for an extended period of up to 2 days.
Patients were discharged on D33 after all study assessments were completed and scheduled for Safety Follow-up on Day 36 (±1 day) via telephone call. Pharmacokinetics of the compound of formula (I) was evaluated by performing LC/MS quantification of levels of the compound in plasma and urine. […] Phamacokinetic parameters determined for the compound of formula (I) include, but are not limited to, AUCt, AUCinf, AUCtau, Cmax, tmax, t1/2, CL/F and Vd/F.
The mark [7] stands for this setting: 28-day essential tremor study (WO 2020/072773).

Turning to `CC(C)c1ccc(CC(=O)N[C@H](C)c2ccc(OCC(F)(F)F)cn2)cc1` [CX-8998], in the series on essential tremor (setting [7]), the “Discontinuation due to intolerability of adverse events” value is reported as 17% and the Discontinuation rate is given as 23%. Also, the “Titrated daily dose reached” value in series [1] (Papapetropoulos et al. 2019, 2021) was 20 mg. The “Highest non-titrated dose safely administered to patients” value in series [1] (single doses, WO 2020/072773) is reported as 16 mg.
Consider `CC(C)(C)NC(=O)CN1CCC(CNC(=O)c2cc(F)cc(Cl)c2)CC1` [compound of formula (I), N-((1-(2-(tert-butylamino)-2-oxoethyl)piperidin-4-yl)methyl)-3-chloro-5-fluorobenzamide], for which the Tolerability entry in series [2] is “not tolerated”. Further, the “Time the compound remained quantifiable in plasma” value in series [3] (5 mg dose, 24 hour sampling period) is no less than 24 h. For the same molecule, the “Time by which plasma concentrations were quantifiable” value in series [3] (single 5 mg dose, healthy volunteers) was no more than 0.50 h. Moreover, in series [4] (5 mg (N = 8)), the “Participants with at least one TEAE” value was 5 (62.5%) n (%); the “TEAE: Dry eye” value is recorded as 1 (12.5%) n (%); the “TEAE: Eye disorders” value is 2 (25.0%) n (%); the “TEAE: General Disorders and Administration Site Conditions” value is given as 3 (37.5%) n (%). Moreover, in series [4] (5 mg (N = 8)), the “TEAE: Headache” value is 2 (25.0%) n (%), the “TEAE: Lethargy” value was 1 (12.5%) n (%), the “TEAE: Medical device site dermatitis” value is 1 (12.5%) n (%) and the “TEAE: Nervous System Disorders” value is reported as 2 (25.0%) n (%). Moreover, the “TEAE: Vessel puncture site thrombosis” value in series [4] (5 mg (N = 8)) was 1 (12.5%) n (%). In addition, in series [4] (10 mg (N = 8)), the “Participants with at least one TEAE” value is given as 5 (62.5%) n (%); the “TEAE: Dry eye” value is given as 2 (25.0%) n (%); the “TEAE: Eye disorders” value is listed as 2 (25.0%) n (%); the “TEAE: General Disorders and Administration Site Conditions” value is given as 3 (37.5%) n (%). Also, in series [4] (10 mg (N = 8)), the “TEAE: Headache” value is listed as 0 n (%), the “TEAE: Lethargy” value was 0 n (%), the “TEAE: Medical device site dermatitis” value is on record as 2 (25.0%) n (%) and the “TEAE: Nervous System Disorders” value was 0 n (%). In series [4] (10 mg (N = 8)), the “TEAE: Vessel puncture site thrombosis” value was 1 (12.5%) n (%). Moreover, in series [4] (20 mg (N = 8)), the “Participants with at least one TEAE” value is 3 (37.5%) n (%); the “TEAE: Dry eye” value is 0 n (%); the “TEAE: Eye disorders” value is recorded as 0 n (%); the “TEAE: General Disorders and Administration Site Conditions” value was 1 (12.5%) n (%). Moreover, in series [4] (20 mg (N = 8)), the “TEAE: Headache” value is 1 (12.5%) n (%), the “TEAE: Medical device site dermatitis” value is given as 0 n (%), the “TEAE: Nervous System Disorders” value was 1 (12.5%) n (%) and the “TEAE: Vessel puncture site thrombosis” value was 0 n (%). Further, in series [4] (Overall (N = 8)), the “Participants with at least one TEAE” value is recorded as 7 (87.5%) n (%), the “TEAE: Dry eye” value is listed as 3 (37.5%) n (%), the “TEAE: Eye disorders” value is recorded as 3 (37.5%) n (%) and the “TEAE: Headache” value is on record as 3 (37.5%) n (%). In addition, in series [4] (Overall (N = 8)), the “TEAE: Lethargy” value is given as 2 (25.0%) n (%), the “TEAE: Medical device site dermatitis” value is given as 3 (37.5%) n (%), the “TEAE: Nervous System Disorders” value is listed as 3 (37.5%) n (%) and the “TEAE: Vessel puncture site thrombosis” value is recorded as 2 (25.0%) n (%). Besides, in series [5] (human, in vivo, 31 days), the “Participants with at least one TEAE” value is 12 (100%)^ n (%), the “TEAE: Cardiac Disorders” value is 4 (33.3%) n (%), the “TEAE: Chest discomfort” value is listed as 2 (16.7%) n (%) and the “TEAE: Dizziness” value is reported as 3 (25.0%) n (%). In addition, in series [5] (human, in vivo, 31 days), the “TEAE: General Disorders and Administration Site Conditions” value was 6 (50.0%) n (%); the “TEAE: Headache” value was 2 (16.7%) n (%); the “TEAE: Intoxicated sensation” value is listed as 2 (16.7%) n (%); the “TEAE: Medical device site dermatitis” value is given as 3 (25.0%) n (%). In addition, in series [5] (human, in vivo, 31 days), the “TEAE: Nervous System Disorders” value is 5 (41.7%) n (%) and the “TEAE: Palpitations” value is on record as 2 (16.7%) n (%). Also, the “SAEs and severe AEs” value in series [5] (in vivo) was “no SAEs and no severe AEs”. Also, the “Dose levels well-tolerated with a titrated dosing schedule” value in series [5] (titration 20 to 120 mg per day, no maximum tolerated dosage identified) is reported as no more than 120 mg per day. In series [6], the “Increase of Cmax and AUC24 above values of a lower dosage not tolerated without titration” value was 2-3 fold.
Regarding `CC1(C)O[C@@H]2[C@@H](CO[C@@]3(COS(N)(=O)=O)OC(C)(C)O[C@@H]23)O1` [topiramate], the “Efficacy for treating essential tremors in clinical trials” value in the series with essential tremor was “effective”.
With `NS(=O)(=O)Cc1noc2ccccc12` [zonisamide], the “Efficacy for treating essential tremors in clinical trials” value with essential tremor is listed as “effective”.
